From patent US20130012546A1 (priority 2009, published 2013)

Legend:
[1] = tested on: Phytophthora infestans; format: in vivo; conditions: tomato plants, preventive spray, 100 ppm of active ingredient, evaluated 7 days after inoculation
[2] = tested on: Plasmopara viticola; assay: Plasmopara test (grapevines) / preventive; format: in vivo; conditions: preventive spray, 10 ppm of active ingredient, evaluated 6 days after inoculation
Description: Plasmopara Test (Grapevines)/Preventive
Solvent: 24.5 parts by weight of acetone • 24.5 parts by weight of dimethylacetamide Emulsifier: 1 part by weight of alkylaryl polyglycol ether
To produce a suitable preparation of active compound, 1 part by weight of active compound is mixed with the stated amounts of solvent and emulsifier, and the concentrate is diluted with water to the desired concentration.
To test for preventive activity, young plants are sprayed with the preparation of active compound at the stated rate of application. After the spray coating has dried on, the plants are inoculated with an aqueous spore suspension of Plasmopara viticola and then remain for 1 day in an incubation cabinet at approximately 20° C. and a relative atmospheric humidity of 100%. The plant is subsequently placed for 4 days in a greenhouse at approximately 21° C. and a relative atmospheric humidity of approximately 90%. The plants are then misted and placed for 1 day in an incubation cabinet.
The test is evaluated 6 days after the inoculation. 0% means an efficacy which corresponds to that of the untreated control, while an efficacy of 100% means that no disease is observed.

[3] = tested on: Pythium ultimum; assay: Pythium test (cotton) / seed treatment; format: in vivo; conditions: 10 g/dt seed of active ingredient, emerged seedlings counted after 7 days in greenhouse
Description: Pythium Test (Cotton)/Seed Treatment
The test is performed under greenhouse conditions.
Cotton seeds, treated with the active compound or compound combinations, solved in N-methyl-2-pyrrolidon and diluted with water to the desired dosages, were sown in 6*6 cm pots containing 4 cm of a 1:1 mix of steamed field soil and sand.
Perlite was incubated with mycelium fragments of Pythium ultimum. 1 ml of infected perlite was scattered between the treated cotton seeds. Seeds were then covered by light expanded clay aggregate. Pots were incubated in the greenhouse 7 days at 20° C. and 80% relative humidity.
Assessment consisted of counting of emerged seedlings. 0% means an efficacy which corresponds to that of the control, while an efficacy of 100% means that all seedlings have emerged.

[4] = logP(HCOOH) by HPLC; format: physicochemical; conditions: HPLC on reversed phase columns, pH 2.7, 0.1% formic acid in water / acetonitrile, linear gradient 10% to 95% acetonitrile; EEC directive 79/831 Annex V.A8

SMILES: CON=C(C(=O)Nc1nc(CON=C(c2ccccc2)c2nnnn2C)cs1)c1ccccc1Cl [Example 10]
- Efficacy % [1]: 95%
- Efficacy % [2]: 90%
- Efficacy % [3]: 88%
- log p [4]: 3.87

SMILES: Cn1nnnc1C(=NOCc1csc(NC(=O)COC2CCCCC2)n1)c1ccccc1 [Example 12]
- Efficacy % [1]: 92%
- Efficacy % [2]: 94%
- Efficacy % [3]: 100%
- log p [4]: 3.85

SMILES: CC(=NOCC(=O)Nc1nc(CON=C(c2ccccc2)n2nnnc2C)cs1)c1ccccc1 [Example 39]
- Efficacy % [1]: 98%
- Efficacy % [3]: 85%
- log p [4]: 3.79

SMILES: C#CCOC(C)C(=O)Nc1nc(CO/N=C(/c2ccccc2)c2nnnn2C)cs1 (stereo not drawn) [Example 51]
- Efficacy % [1]: 95%
- Efficacy % [2]: 96%
- Efficacy % [3]: 100%
- log p [4]: 2.82

SMILES: C#CCOC(C)C(=O)Nc1nc(CO/N=C(/c2ccccc2)n2nnnc2C)cs1 (stereo not drawn) [Example 53]
- Efficacy % [1]: 95%
- Efficacy % [2]: 95%
- Efficacy % [3]: 100%
- log p [4]: 2.92

SMILES: Cc1nnnn1C(=NOCc1csc(NC(=O)COC2CCCCCC2)n1)c1ccccc1 [Example 89]
- Efficacy % [1]: 100%
- Efficacy % [2]: 73%
- log p [4]: 4.3

SMILES: Cn1nnnc1C(=NOCc1csc(NC(=O)COC2CCCCCC2)n1)c1ccccc1 [Example 91]
- Efficacy % [1]: 100%
- Efficacy % [2]: 94%
- Efficacy % [3]: 96%
- log p [4]: 4.23

SMILES: CC(OC1CCCCC1)C(=O)Nc1nc(CON=C(c2ccccc2)c2nnnn2C)cs1 (stereo not drawn) [Example 92]
- Efficacy % [1]: 100%
- Efficacy % [2]: 93%
- log p [4]: 4.14

SMILES: Cc1nnnn1C(=NOCc1csc(NC(=O)C(C)OC2CCCC2)n1)c1ccccc1 (stereo not drawn) [Example 93]
- Efficacy % [1]: 100%
- Efficacy % [2]: 91%
- log p [4]: 3.87

SMILES: C=C=CCCC(=O)Nc1cccc(CON=C(c2ccccc2)c2nnnn2C)n1 [Example 101]
- Efficacy % [1]: 93%
- Efficacy % [2]: 81%
- Efficacy % [3]: 100%
- log p [4]: 3.21

SMILES: C=C=CCCC(=O)Nc1nc(CON=C(c2ccccc2)c2nnnn2C)cs1 [Example 102]
- Efficacy % [1]: 80%
- Efficacy % [2]: 83%
- log p [4]: 3.11
